Measured values published in patent US20090209538A1, “THERAPEUTIC SUBSTITUTED LACTAMS” (ALLERGAN, INC., priority 2008, published 2009).
Entries after “also recorded” stand apart in the source; their conditions may differ.

System: patients having glaucoma (lashes and adjacent hairs)
Assay: Clinical observation of lash and hair growth in glaucoma patients treated in one eye
Assay type: in vivo, humans
Settings: glaucoma patients treated unilaterally; treated versus control areas
Text: In the course of treating patients having glaucoma, treatment may only be appropriate in one eye. […] The lash appearance on the lids of the treated eyes would have appeared quite attractive if it represented a bilateral phenomenon. As a result of its asymmetric nature, the long lashes on one side could be construed as disturbing from a cosmetic standpoint. A systemic examination was preformed as a result of the asymmetric phenomenon. It soon became apparent that this altered appearance was not an isolated finding. […] Definite differences could be identified to varying degrees in the lashes and adjacent hairs of all patients who were taking the drug on a unilateral basis for longer than 6 months.
The changes in the lashes were apparent on gross inspection in several patients once attention was focused on the issue. In those with light colored hair and lashes, the differences were only seen easily with the aid of the high magnification and lighting capabilities of the slit lamp biomicroscope. In the course of glaucoma follow-up examination, attention is generally immediately focused on the eye itself. As a result of the high power magnification needed only one eye is seen at a time and the eye is seen at a high enough power that the lashes are not in focus. […]

Structure (SMILES): CCNC(=O)CCC/C=C\C[C@@H]1[C@@H](/C=C/[C@@H](O)CCc2ccccc2)[C@H](O)C[C@@H]1O [bimatoprost]
- lash / hair growth in treated eye versus non-treated eye: longer, thicker, and fuller in the treated eye than in the non-treated eye; also recorded: hair growth is stimulated
